Experimental data from PubChem BioAssay AID1919015 (Molecular Pharmacology Branch, DTP, NCI, 2023).

System: OVCAR-5 complex spheroids with HUVEC/MSC, viability, % test/control
Assay: Anticancer human tumor OVCAR-5 cell line growth inhibition [AhR];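 further: spheroids exposed to compounds for 7 days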;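 on viability, T/C: 100% = DMSO vehicle control wells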
Settings: for IC50: curve of first compound; for viability, T/C: stronger effect = lower value; active means viability on the fitted dose curve at most 10% of control; inactive means the rest
How it was run: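 Agents were dosed in half-log steps down from roughly clinical Cmax, or from 10 microM where Cmax was unknown, alone and with AhR antagonists. Read-out: percent test/control growth of tumor spheroids containing HUVEC and MSC stromal cells.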

[1] = second compound 0.1 µM, first compound 0.0316 µM
[2] = second compound 0.1 µM, first compound 0.1 µM
[3] = second compound 0.1 µM, first compound 0.316 µM
[4] = second compound 0.1 µM, first compound 1 µM
[5] = second compound 0.316 µM, first compound 0.0316 µM
[6] = second compound 0.316 µM, first compound 0.1 µM
[7] = second compound 0.316 µM, first compound 0.316 µM
[8] = second compound 0.316 µM, first compound 1 µM
[9] = second compound 1 µM, first compound 0.0316 µM
[10] = second compound 1 µM, first compound 0.1 µM
[11] = second compound 1 µM, first compound 0.316 µM
[12] = second compound 1 µM, first compound 1 µM
[13] = second compound 3.16 µM, first compound 0.0316 µM
[14] = second compound 3.16 µM, first compound 0.1 µM
[15] = second compound 3.16 µM, first compound 0.316 µM
[16] = second compound 3.16 µM, first compound 1 µM
[17] = second compound 10 µM, first compound 0.0316 µM
[18] = second compound 10 µM, first compound 0.1 µM
[19] = second compound 10 µM, first compound 0.316 µM
[20] = second compound 10 µM, first compound 1 µM
[21] = second compound 0.1 µM, first compound 3.16 µM
[22] = second compound 0.1 µM, first compound 10 µM
[23] = second compound 0.316 µM, first compound 3.16 µM
[24] = second compound 0.316 µM, first compound 10 µM
[25] = second compound 1 µM, first compound 3.16 µM
[26] = second compound 1 µM, first compound 10 µM
[27] = second compound 3.16 µM, first compound 3.16 µM
[28] = second compound 3.16 µM, first compound 10 µM
[29] = second compound 10 µM, first compound 3.16 µM
[30] = second compound 10 µM, first compound 10 µM

Nc1ncn(C2CC(O)C(CO)O2)c(=O)n1 (stereo not given) + Cc1cncc(-c2nc(NCCc3c[nH]c4ccccc34)c3ncn(C(C)C)c3n2)c1
active: viability, T/C (second compound 10 µM, first compound 0.01 µM) 10.1% | viability, T/C [17] 8.47% | viability, T/C [18] 8.64% | viability, T/C [19] 8.49% | viability, T/C [20] 11.6%
inactive: viability, T/C (second compound 0.1 µM, first compound 0.00316 µM) 98.3% | viability, T/C (second compound 0.1 µM, first compound 0.01 µM) 94.2% | viability, T/C [1] 87.6% | viability, T/C [2] 80.7% | viability, T/C [3] 69% | viability, T/C [4] 62.7% | viability, T/C (second compound 0.316 µM, first compound 0.00316 µM) 93.8% | viability, T/C (second compound 0.316 µM, first compound 0.01 µM) 91.7% | viability, T/C [5] 90% | viability, T/C [6] 74.8% | viability, T/C [7] 65.5% | viability, T/C [8] 59% | viability, T/C (second compound 1 µM, first compound 0.00316 µM) 96.2% | viability, T/C (second compound 1 µM, first compound 0.01 µM) 85.5% | viability, T/C [9] 85.4% | viability, T/C [10] 78.3% | viability, T/C [11] 61.5% | viability, T/C [12] 61.8% | viability, T/C (second compound 3.16 µM, first compound 0.00316 µM) 79.8% | viability, T/C (second compound 3.16 µM, first compound 0.01 µM) 77.8% | viability, T/C [13] 70.4% | viability, T/C [14] 64% | viability, T/C [15] 59.8% | viability, T/C [16] 51.2% | viability, T/C (second compound 10 µM, first compound 0.00316 µM) 10.4%
> 1000 nM: IC50 (second compound 0.1 µM) | IC50 (second compound 0.316 µM) | IC50 (second compound 1 µM) | IC50 (second compound 3.16 µM)
< 3.16 nM: IC50 (second compound 10 µM)

COc1cc(C2c3cc4c(cc3C(OC3OC5COC(C)OC5C(O)C3O)C3COC(=O)C23)OCO4)cc(OC)c1O (stereo not given) + Cc1ccccc1N=Nc1ccc(NC(=O)c2ccnn2C)c(C)c1
2750 nM: IC50 (second compound 3.16 µM)
2250 nM: IC50 (second compound 0.316 µM)
2090 nM: IC50 (second compound 0.1 µM)
2500 nM: IC50 (second compound 1 µM)
2910 nM: IC50 (second compound 10 µM)
inactive: viability, T/C [1] 105% | viability, T/C [2] 104% | viability, T/C [3] 98.8% | viability, T/C [4] 68.3% | viability, T/C [21] 40.4% | viability, T/C [22] 32.1% | viability, T/C [5] 114% | viability, T/C [6] 114% | viability, T/C [7] 103% | viability, T/C [8] 68.8% | viability, T/C [23] 43.4% | viability, T/C [24] 32.9% | viability, T/C [9] 115% | viability, T/C [10] 116% | viability, T/C [11] 105% | viability, T/C [12] 73.5% | viability, T/C [25] 44.1% | viability, T/C [26] 36.1% | viability, T/C [13] 112% | viability, T/C [14] 121% | viability, T/C [15] 110% | viability, T/C [16] 77.1% | viability, T/C [27] 47.9% | viability, T/C [28] 38.2% | viability, T/C [17] 105% | viability, T/C [18] 107% | viability, T/C [19] 98% | viability, T/C [20] 68.8% | viability, T/C [29] 51.8% | viability, T/C [30] 38.9%

COc1cccc2c1C(=O)c1c(O)c3c(c(O)c1C2=O)CC(O)(C(=O)CO)CC3OC1CC(N)C(O)C(C)O1 (stereo not given) + Cc1ccccc1N=Nc1ccc(NC(=O)c2ccnn2C)c(C)c1
164 nM: IC50 (second compound 0.316 µM)
269 nM: IC50 (second compound 3.16 µM)
active: viability, T/C [21] 1.63% | viability, T/C [22] 0.98% | viability, T/C [23] 1.72% | viability, T/C [24] 1.7% | viability, T/C [25] 1.44% | viability, T/C [26] 1% | viability, T/C [27] 1.21% | viability, T/C [28] 1.15% | viability, T/C [29] 1.08% | viability, T/C [30] 1.24%
139 nM: IC50 (second compound 0.1 µM)
inactive: viability, T/C [1] 60.9% | viability, T/C [2] 48.8% | viability, T/C [3] 42.5% | viability, T/C [4] 23.8% | viability, T/C [5] 61.6% | viability, T/C [6] 51.7% | viability, T/C [7] 43.6% | viability, T/C [8] 23.7% | viability, T/C [9] 63.4% | viability, T/C [10] 53.2% | viability, T/C [11] 48% | viability, T/C [12] 22.3% | viability, T/C [13] 65.3% | viability, T/C [14] 59.4% | viability, T/C [15] 48% | viability, T/C [16] 23% | viability, T/C [17] 63.4% | viability, T/C [18] 62.2% | viability, T/C [19] 55% | viability, T/C [20] 25.1%
231 nM: IC50 (second compound 1 µM)
391 nM: IC50 (second compound 10 µM)

COc1ccc([C@@H](O)c2cc(-c3ncnc4cc(N5CCOCC5)ccc34)c(F)cc2Cl)nn1 + CC(CO)NC(=O)c1cc(-c2ccc(Cl)cc2)nn(-c2cnn(C)c2)c1=O
2350 nM: IC50 (second compound 10 µM)
3610 nM: IC50 (second compound 1 µM)
inactive: viability, T/C [1] 101% | viability, T/C [2] 107% | viability, T/C [3] 97.6% | viability, T/C [4] 75% | viability, T/C [21] 45.3% | viability, T/C [22] 23.8% | viability, T/C [5] 105% | viability, T/C [6] 105% | viability, T/C [7] 102% | viability, T/C [8] 80.4% | viability, T/C [23] 48.6% | viability, T/C [24] 24.4% | viability, T/C [9] 114% | viability, T/C [10] 115% | viability, T/C [11] 107% | viability, T/C [12] 87.4% | viability, T/C [25] 52.9% | viability, T/C [26] 28.6% | viability, T/C [13] 99.2% | viability, T/C [14] 102% | viability, T/C [15] 87.3% | viability, T/C [16] 77.5% | viability, T/C [27] 50.5% | viability, T/C [28] 27.7% | viability, T/C [17] 98% | viability, T/C [18] 96.6% | viability, T/C [19] 85.4% | viability, T/C [20] 69% | viability, T/C [29] 43.3% | viability, T/C [30] 26.2%
3360 nM: IC50 (second compound 3.16 µM)
2570 nM: IC50 (second compound 0.1 µM)
2940 nM: IC50 (second compound 0.316 µM)
